Assay results reported in patent US20230277538A1, “THERAPEUTICS FOR THE TREATMENT OF FSHD” (UCL BUSINESS LTD, priority 2020, published 2023).
Residues, ends and D or L forms follow the SMILES beside them. *: point of attachment. Cbz = O=C(OCc1ccccc1)*; CH2F = FC*

What was measured:
[1] = system: iC2C12-DUX4 myotubes; assay: cells; type: cell-based, mouse
Experimental: FIG. 4: Ripk3 inhibition decreases DUX4-mediated cell death in iC2C12-DUX4 myotubes. (A) iC2C12-DUX4 viability in presence of dox 1000 ng/ml and treated with different doses of Z-VAD, Necrostatin-1 or GSK'872. (B) Cell viability in presence of dox 1000 ng/ml with the different compounds alone or in combination. Z: Z-vad (20 μM); N: necrostatin-1 (30 μM), N+: necrostatin-1 (90 μM), G: GSK'872 (2 μM); G+: GSK'872 (4 μM).
(§1) Inducible iC2C12-Dux4 (Bosnakovski, 2008) were cultured in DMEM high glucose with GlutaMAX and no Sodium Pyruvate (Gibco), 20% fetal bovine serum, and 800 μg/mL G418 (Gibco). For myoblast experiments, iC2C12-Dux4 were seeded into white 96-well plates (3000 cells per well) in growth medium. After 24 h, DUX4 expression was induced by adding doxycycline (Sigma-Aldrich) at a final concentration of 50 to 1000 ng/mL. For myotubes experiments, iC2C12-Dux4 were seeded into white 96-well plates (1500 cells per well) in growth medium. After 48 h, cells were differentiated with DMEM, 2% horse serum and 10 μg/mL insulin. DUX4 expression was induced after 4 days of differentiation to not disturb myotube formation (Bosnakovski, 2008). Inhibition of apoptosis and/or necroptosis was simultaneously realized to DUX4 induction for 24 h using 20 μM of pan-caspase inhibitor Z-VAD.fmk (Merk Chemicals), 30 μM Necrostatin-1, 3 μM GSK872, 0.2 Cyclosporin A (Cambridge Bioscience). Cell survival was determined by CellTiter-Glo luminescent cell viability assay (Promega), membrane permeability by CytoTox-Glo cytotoxicity assay (Promega) and caspase activation by Caspase-Glo 3/7 Assay (Promega) according to the manufacturer's instructions. Luminescence was read by a microplate reader Tecan.
The effects of the different inhibitors on iC2C12-DUX4 myotubes were investigated. Again, the results are expressed as the percentage of live cells in the presence of the different compounds compared to the control condition without. No effect of Z-VAD were observed arguing against a major role of caspases in DUX4-mediated toxicity (FIG. 4A). When the cells were cultivated with necrostatin-1 in the presence of dox (1000 ng/ml), necrostatin-1 concentrations […] 60 μM conferred a protection against cell death (up to 60%±6 of viable cells in presence of 60 μM necrostatin-1 compared to 39%±1 without, FIG. 4A), necrostatin-1 concentrations of 150 or 300 μM leading to up to 85%±2 viable cells (FIG. 4A). […] The different compounds were next added separately or together to iC2C12-DUX4 myotubes that were incubated with dox (1000 ng/ml). […] Indeed, at low (2 μM) or high (4 μM) concentration, GSK'872 increased cell viability by 2.1 fold (FIG. 4D). […] Ripk3 but also to a lesser extent Ripk1, participated in DUX4-mediated cell toxicity.

[2] = system: Caspase 3/7; assay: Caspase-Glo 3/7 Assay in iC2C12-DUX4 cells; type: cell-based, mouse; details: Z-Vad 30 μM or 50 μM, different concentrations of doxycycline
Experimental: FIG. 9: Apoptosis is not involved in iC2C12-DUX4 death. (A) Cell viability on iC2C12-DUX4 myoblasts in the presence of different concentrations of DMSO induced a non-specific increase of cell survival. […] Caspase 3/7 activity was measured using the Caspase-Glo 3/7 Assay (Promega) according to the manufacturer's instructions.
as §1, with “Inhibition of apoptosis and/or necroptosis was simultaneously realized to DUX4 induction for 24 h using 20 μM of pan-caspase inhibitor Z-VAD.fmk (Merk Chemicals), 30 μM Necrostatin-1, 3 μM GSK872, 0.2 Cyclosporin A (Cambridge Bioscience).” left out

[3] = system: iC2C12-DUX4 myoblasts; assay: Cell viability (ATP assay, CellTiter-Glo) of dox-induced iC2C12-DUX4 myoblasts with death inhibitors; type: cell-based, mouse; details: for increase in the number of viable cells: inhibitor present; for optimal dose from dose response: with or without doxycycline 200 ng/ml, 24 hours after dox induction
Experimental: (A) Cell viability of iC2C12-DUX4 myoblasts at 48 h of induction without or with dox (200 ng/ml) and treatment with various concentrations of the pan-caspase inhibitor Z-VAD (μM). […] Ctrl: DMSO alone.
FIG. 10: Role of necroptosis in the DUX4 mediated cell death. Several death inhibitors were added at different concentrations alone to iC2C12 myoblasts in presence or not of Doxycycline 200 ng/ml.
as §1, with “For” for “Inducible iC2C12-Dux4 (Bosnakovski, 2008) were cultured in DMEM high glucose with GlutaMAX and no Sodium Pyruvate (Gibco), 20% fetal bovine serum, and 800 μg/mL G418 (Gibco). For”, “DUX4 expression was induced after 4 days of differentiation to not disturb myotube formation (Bosnakovski, 2008).” left out
The iC2C12-DUX4 viability was assessed for 2 different doses of dox and the results are expressed as the percentage of cells alive in the presence of the different compounds compared to the condition without them. Z-VAD was always added to eliminate any bias linked to caspases 3/7 activation/synergic effect.

[4] = system: necroptotic genes (Ripk1, Ripk3 and Mlk1) and DUX4-network genes (Tm7sf4, mDuxb1 and Wfdc3); assay: mRNA expression of necroptotic and DUX4-network genes in treated Actal Cre-FLEx DUX4 mice; type: in vivo, mouse
Experimental: Dabrafenib (30 mg/kg) was given by oral (p.o.) gavage to 4-5 week old Actal Cre-FLEx DUX4 animals 5 times/week for 4 weeks. Tamoxifen was intraperitoneally weakly injected (2 mg/kg). […] Expression of necroptotic genes (Ripk1, Ripk3 and Mlk1) and DUX4-network genes (Tm7sf4, mDuxb1 and Wfdc3) were measured.
For muscles, cryopreserved tissues were transferred in tube containing 1.4 mm ceramic beads (FastPrep, MP biomedicals, UK) plus 1 mL of Trizol (Thermo Fisher Scientific, Paisley, UK) and shaken at 10000 rpm for 40 s. Total RNAs from cells or tissue were extracted using Trizol (Thermo Fisher) according the manufacturer's protocol. The quantity of RNA was determined using a nanodrop ND-1000 spectrophotometer (Thermo Scientific, Wilmington, Del., USA). Reverse transcription was performed on 1 μg of total RNA in a 10 μL final volume (Roche Transcriptor First Strand cDNA Synthesis kit). Quantitative PCR (qPCR) was designed according to the MIQE standards. qPCRs were performed on a LightCycler 480 Real-Time PCR System (Roche) in a final volume of 9 with 0.2 μL of RT product, 0.4 μM each of forward and reverse primers (see Tables 2 and 3), and 4.5 μL of SYBRGreen Mastermix (Roche).
Dabrafenib (30 mg/kg) was administered by oral (p.o.) gavage to 4-5 week old animals 5 times/week for 4 weeks. Tamoxifen was intraperitoneally injected weakly (2 mg/kg).

[5] = system: Cre-inducible FLExDUX4 mice; assay: In vivo GSK'872 treatment of tamoxifen-induced Cre-inducible FLExDUX4 mice; parameters: species or system mouse; details: GSK'872 2 mg/kg for 5 days IP; tamoxifen 10 mg/kg for 2 days IP; mice killed at 7 weeks
Experimental: Mice were killed at the age of 7 weeks. (A) Total body weight was measured at day 0 and 7. Y-axis represents the weight after tamoxifen at D7 relative to the weight before tamoxifen injection at DO. (BC) Weights of the tibialis anterior (TA) (B) and quadriceps (C) were measured at D7. (DE) Expression levels of 2 genes (Tm7sf4 (D) and DuxBl (E)) downstream of DUX4 were measured in the quadriceps. Y-axis represents arbitrary units relative to Psma2. • * P<0.05, **P<0.01, ***P<0.001, one-way ANOVA followed by a Tukey's multiple comparison test.
Three-week-old animals were weighted 3 times a week, after weaning. The tamoxifen (MP Biomedicals) injections were realized according to Jones et al (Jones, 2018). Six-week-old mice were injected (IP) with Tamoxifen (TMX) on two consecutive days for a final concentration of 10 mg/kg. Following TMX injection, animals were daily weighed, and sacrificed after a week. Muscles were harvested and frozen in liquid nitrogen or liquid-nitrogen-cooled isopentane for further analysis.

[6] = Mus musculus, Myotube, read-out: viable cells

COC(=O)C[C@H](NC(=O)[C@H](C)NC(=O)[C@@H](NC(=O)OCc1ccccc1)C(C)C)C(=O)CF [Z-VAD] (Cbz-Val-Ala-Asp(OMe)-CH2F)
cell survival ([1]; iC2C12-DUX4 myotubes, Z-vad added in vitro): did not increase cell survival
increase of cell survival ([1]; myotubes, dox 1000 ng/ml, Z-VAD alone (20 μM)): 10%±10
effect on live cells ([1]; myotubes, dox 1000 ng/ml, different doses of Z-VAD): No effect
caspase 3/7 activity after DUX4 expression [2]: correctly inhibited
percentage of viable cells ([3]; iC2C12 myoblasts, addition of Z-Vad): did not modify the percentage of viable cells
cell survival with and without Z-VAD ([3]; myoblasts, 200 ng/ml dox, different doses of Z-VAD): No change in cell survival

CN1C(=O)C(Cc2c[nH]c3ccccc23)NC1=S (stereo not shown) [necrostatin-1, 5-(1H-indol-3-ylmethyl)-3-methyl-2-sulfanylideneimidazolidin-4-one]
viability at 60 µM [1, 6]: 60%
increase in the number of viable cells ([3]; iC2C12 myoblasts): 20%
increase of cells survival ([3]; myoblasts, 200 ng/ml dox, necrostatin-1 present, Z-VAD always added): 34%±20
optimal dose from dose response ([3]; myoblasts): 30 µM

CC(C)(C)c1nc(-c2cccc(NS(=O)(=O)c3c(F)cccc3F)c2F)c(-c2ccnc(N)n2)s1 [dabrafenib, N-{3-[5-(2-aminopyrimidin-4-yl)-2-tert-butylthiazol-4-yl]-2-fluorophenyl}-2,6-difluorobenzenesulfonamide]
mean expression of Ripk1, Ripk3, Mlk1, Tm7sf4, mDuxb1 and Wfdc3 relative to untreated control animals ([4]; dabrafenib 30 mg/kg p.o. 5 times/week for 4 weeks, 4-5 week old animals, tamoxifen 2 mg/kg): decreased mean expression of almost all of these genes

Nc1cccc2c(=O)[nH][nH]c(=O)c12.[Na] [galavit, 3-aminophthalhydrazide monosodium salt]
mean expression of Ripk1, Ripk3, Mlk1, Tm7sf4, mDuxb1 and Wfdc3 relative to untreated control animals ([4]; galavit 4.5 mg/kg IP daily for 3 days, 7-8 week old males, tamoxifen 10 mg/kg day 0 and 1): decreased mean expression of almost all of these genes

CC(C)S(=O)(=O)c1ccc2nccc(Nc3ccc4scnc4c3)c2c1 [GSK'872, Benzothiazol-5-yl-[6-(propane-2-sulfonyl)-quinolin-4-yl]-amine]
viability at 3 µM [1, 6]: 67%
viability at 6 µM [1, 6]: 77%
increase of the number of viable cells ([1]; iC2C12-DUX4 myotubes, GSK'872 in combination with Z-Vad): 2 fold
increase of cell viability ([1]; myotubes, dox 1000 ng/ml, GSK'872 low (2 μM) or high (4 μM) concentration): 2.1 fold
increase in the number of viable cells ([3]; iC2C12 myoblasts): 10%
optimal dose from dose response ([3]; myoblasts): 3 µM
DUX4-mediated cell death in vivo [5]: decreased DUX4-mediated cell death in vivo
